# Results: US20240342157A1, “BAK ACTIVATORS, PHARMACEUTICAL COMPOSITIONS, AND USES IN TREATING CANCER” (Emory University, priority 2021, published 2024)
# What was measured:
# [1] = test system: Bak−/− and DKO A549 cells; assay: apoptotic cell death in Bak knockout cells; format: cell-based, human
# Excerpt: Bak is a pro-apoptotic protein required for programmed cell death and apoptosis induction in cancer cells. […] Experiments indicate that BKA-073 directly binds to Bak protein and induces Bak oligomerization in mitochondria leading to activation of a proapoptotic function. Experiments indicate that BKA-073-induced Bak oligomerization promotes mitochondrial priming and Cyt c release, which are early changes in net pro-apoptotic signaling at the mitochondria. BKA-073-induced mitochondrial priming and Cyt c release leads to apoptotic cell death of lung cancer cells.
# Several Bax/Bak-independent mechanisms of apoptotic cell death have been described. […] It is contemplated that, in addition to the major Bak-dependent apoptosis mechanism, BKA-073 induces a small proportion of apoptotic cell death (about 20%) through Bax/Bak-independent mechanism(s).
# [2] = test system: A549 lung cancer xenografts; assay: A549 lung cancer xenografts; format: in vivo
# Description: Nu/Nu mice bearing A549 lung cancer xenografts were treated with increasing doses of BKA-073 (5 to 15 mg/kg/d) i.p. for 28 days. Tumor volume was measured once every 2 days. After treatment, mice were sacrificed, and tumors were removed and analyzed.
# To test the potency of BKA-073 in vivo, mice carrying lung cancer xenografts derived from A549 cells were treated i.p. with increasing doses (0, 5, 10, 15 mg/kg/d) of BKA-073 for 28 days. […] To assess whether BKA-073 induced suppression of tumor growth occurs through activation of Bak and apoptosis in vivo, representative samples from harvested tumor tissues were analyzed by cross-linking with BMH for Bak oligomerization or by immunohistochemistry (IHC) for active caspase 3. […] Doses between 5 mg/kg and 15 mg/kg provide an optimal therapeutic index for BKA-073 for in vivo experimentation involving lung cancer xenografts.
# [3] = test system: KRAS G12D LKB1fl/fl (KL) mice; assay: mutant KRAS-driven lung cancer GEMM; format: in vivo; conditions: 15 mg/kg/d i.p., control 4 of 6, p<0.01
# Description: After administration of adenovirus Cre recombinase in KRAS G12D LKB1fl/fl (KL) mice for 6 weeks, KL mice were treated with KRA-073 (15 mg/kg/d) i.p. for 48 days (n=6 mice/group). Survival of mice is shown for up to 48 days before euthanization in the control group versus the BKA-073 treatment group.
# To assess the potency of BKA-073 in KRAS mutant driven lung cancer, lox-stop-lox (LSL)-KRAS G12D LKB1fl/fl (i.e. KL) mice were generated and bred. These mice contain a KRAS G12D LSL knock-in allele and a floxed allele of LKB1 (LKB1fl/fl). Primary lung adenocarcinoma was detectable as early as 6 weeks after intranasal administration of 5×10^6 pfu adenovirus expressing Cre recombinase (AdeCre) in KRAS G12D LKB1fl/fl (KL) mice.
# To further assess the potential of BKA-073 as therapy for mutant KRAS-driven lung cancer, BKA-073 (15 mg/kg/d) or vehicle was administered to KL mice i.p. starting at 6 weeks post AdeCre delivery. […] To quantify tumor burden and tumor multiplicity in mice, H&E-stained lungs were imaged with morphometric software to quantify the surface area composed of tumor as opposed to normal tissue compared with the control group. There were 4 deaths out of 6 mice in the control group versus 2 deaths out of 6 mice in the BKA-073 treatment group (p<0.01), calculated up to 48 days before euthanization (FIG. 5).
structure (smiles),measurement,setting,value
"COc1ccc2nc3ccccc3c(NCCNCC(C)O)c2c1 (stereo not shown) [BKA-073, 1-((2-((2-methoxyacridin-9-yl)amino)ethyl)amino)propan-2-ol]",apoptotic cell death,[1],about 20%
same,tolerability,[2]; 5 to 15 mg/kg/d,well tolerated without significant toxicity
same,weight loss and organ toxicities,[2]; dose range between 5 and 15 mg/kg/day,without weight loss or significant organ toxicities
same,deaths up to 48 days,[3],2 deaths out of 6 mice
